Test results published in patent US20170136085A1, “TARGETED THERAPEUTICS” (SYNTA PHARMACEUTICALS CORP., priority 2014, published 2017).

Tested on: HER2
Experiment: Degradation of HER2 in cells, Method 1 (SDS-PAGE / immunoblot)
Type: cell-based
Details: BT-474 cells, 0.5 μM, overnight in DMEM medium
Description: BT-474 cells are treated with 0.5 μM, 2 μM, or 5 μM of 17-AAG (a positive control) or 0.5 μM, 2 μM, or 5 μM of an Hsp90-targeting moiety or conjugate of the invention overnight in DMEM medium. After treatment, each cytoplasmic sample is prepared from 1×10^6 cells by incubation of cell lysis buffer (#9803, Cell Signaling Technology) on ice for 10 minutes. The resulting supernatant used as the cytosol fractions is dissolved with sample buffer for SDS-PAGE and run on a SDS-PAGE gel, blotted onto a nitrocellulose membrane by using semi-dry transfer. Non-specific binding to nitrocellulose is blocked with 5% skim milk in TBS with 0.5% Tween at room temperature for 1 hour, then probed with anti-HER2/ErB2 mAb (rabbit IgG, #2242, Cell Signaling) and anti-Tubulin (T9026, Sigma) as housekeeping control protein. HRP-conjugated goat anti-rabbit IgG (H+L) and HRP-conjugated horse anti-mouse IgG (H+L) are used as secondary Ab (#7074, #7076, Cell Signaling) and LumiGLO reagent, 20× Peroxide (#7003, Cell Signaling) is used for visualization. The Hsp90 client protein HER2 is degraded when cells are treated with Hsp90-targeting moieties or SDC-TRAPs of the invention.

C=CCNC1=C2C[C@@H](C)C[C@H](OC)[C@H](O)[C@@H](C)/C=C(\C)[C@H](OC(N)=O)[C@@H](OC)/C=C\C=C(/C)C(=O)NC(=CC1=O)C2=O [17-AAG]
degradation of HER2: partial degradation
